Results: patent US20030105045A1, “Artificial transcriptional factors and methods of use” (priority 2000, published 2003)

Columns and labels:
[1] = test system: ATF assay template containing five ATF binding sites in the promoter; experiment: In vitro run-off transcription assay with HeLa crude nuclear extract, ATF assay template; format: biochemical; conditions: for level/strength of transcriptional activation in words (compared with GAL4-VP16 or basal): ATF assay template
From the text: (§1) Two 26-base oligonucleotides having the sequence of SEQ. ID NO: 9 and SEQ. ID NO: 10 were annealed and ligated to yield a series of double-stranded DNA fragments containing multiple binding sites for triple-helix formation. A fragment containing 5 copies of the site as shown in the duplex of SEQ ID NO: 9 and SEQ ID NO: 10 was purified by agarose gel electrophoresis and inserted into the HindIII restriction site in the polylinker of an embodiment of the G5E4T series of transcription templates.
(§2) In FIG. 3A, the control template contains […] five GAL4 and five ATF binding sites incorporated in the promoter at −53 and −155 bp relative to the +1 transcription start site, respectively; and in FIG. 3B the ATF assay template contains five ATF binding sites incorporated at −65 bp.
The resulting plasmids were linearized by digestion with EcoRI, purified and the linear templates were stored in ultra-pure water at −20° C. The transcription assay was initiated by incubation of 200 ng of linearized transcription templates with ATFs in the binding buffer containing 10 mM Tris pH 8, 40 mM MgCl2 and 100 mM KCl at room temperature for 24 hours. The total volume of binding reaction was 5 microliters. After binding reaction, salt and buffer conditions were adjusted by the addition of 5 microliters of water, 6 microliters of 1×HeLa buffer (20 mM HEPES pH 7.9, 100 mM KCl, 0.2 mM EDTA, 0.5 mM DTT, 20% glycerol) and 5 microliters of HeLa crude nuclear extract (Promega, Madison Wis.). An aliquot of GAL4-VP16 protein (1 microliter total) was added to the control templates and all reactions were pre-incubated for 10 minutes at 30 degrees C. The transcription was initiated by the addition of 1 microliter of a mixture of ribonucleotide triphosphates (ATP, CTP, GTP, 10 mM each) and 0.5 microliters of ^32P-alpha-UTP (NEN, Boston, Mass.). After further incubation at 30° C. for 30 minutes all transcription reactions were terminated by the addition of 100 microliters of stop buffer (0.5 M sodium acetate, 0.2% SDS, 10 mM EDTA, 1 microgram/ml glycogen, 1 microgram/ml Proteinase K). The reactions were vortexed, incubated at 37° C. for 10 minutes, extracted with phenol/chloroform, and precipitated with 250 microliters of ice-cold ethanol. The pellets were dissolved in 20 microliters of standard denaturing formamide/dye mix and were loaded and run on a denaturing 6% polyacrylamide gel.
(§3) The templates for in vitro transcription were made by inserting 5 direct repeats of a triple helix binding DNA sequence having a sequence of SEQ ID NO: 11 (5′[…]3′) into the Hind III restriction site in the polylinker of the GnE4T series of transcription templates (Lin, Y. S. et al., Cell 5A: 659-664 (1988)). […] The quantitation of signals was performed with Fuji MacBAS software.

[2] = test system: transcription template with 5 copies of ATF binding sites upstream of minimal HSV thymidine kinase promoter driving CAT reporter gene, BHK-21 cells; experiment: Transient cotransfection CAT reporter assay in BHK-21 cells, template with ATF binding sites; format: cell-based; conditions: 50 nM ATFs, 1 microgram plasmid, LipofectAMINE, harvested 48 hours after transfection
From the text: The ability of ATFs to activate transcription in vivo was examined by transient cotransfection assays in BHK-21 tissue culture cells. As a control template, a reporter construct containing the minimal HSV thymidine kinase promoter driving the expression of chloramphenicol acetyl transferase (CAT) reporter gene was used. The transcription template was constructed by incorporating the oligonucleotide with 5 copies of ATF binding sites in between the HindIII and BamHI restriction sites of the polylinker upstream of the control template promoter (FIG. 6A). The transfection mixture contained 1 microgram of the plasmid DNA and 50 nM ATFs. Transfections were performed by using polycationic lipid LipofectAMINE (Life Technologies). Cells were harvested 48 hours after transfection and CAT assays were performed using FAST CAT (Molecular Probes, Inc.) as substrate, and visualized and quantitated on a Fluorimager (Molecular Dynamics). Each reporter construct shown in FIG. 6A was transfected into cells with and without ATF molecules and the activation signal was measured with standard methods.

[3] = test system: control template containing five GAL4 binding sites; experiment: In vitro run-off transcription assay with HeLa crude nuclear extract, control template; format: biochemical; conditions: data not shown
From the text: as §1, §2
The resulting plasmids were linearized by digestion with EcoRI, purified and the linear templates were stored in ultra-pure water at −20° C. […]
as §3

[4] = test system: GAL4 DNA-binding domain fusion; conditions: cited from earlier work

ATF(29): 22-mer TFO (SEQ ID NO:5), 5′ polyglycol linker, crosslinker-coupled 29 amino acid VP16 peptide (SEQ ID NO:8) (chain 1 ttgtggtgggtggggtgtgggt; chain 2 CGSDALDDFDLDMLGSDALDDFDLDMLGS; polyglycol linker, crosslinker conjugation; synthetic composition useful as artificial transcriptional factor)
level/strength of transcriptional activation in words (compared with GAL4-VP16 or basal) ([1]; FIG. 4 and FIG. 5): comparable to the level that could be obtained with GAL4-VP16
level/strength of transcriptional activation in words (compared with GAL4-VP16 or basal) ([1]; FIG. 4 and FIG. 5, listed as ATF): equal to, if not higher than
ATF concentrations at which these levels of activation (30-40 fold) are obtained ([1]; further increase in concentration leads to diminishing activation): 2 to 40 nM
activation of transcription above basal level ([1]; linearized template with five ATF binding sites, quantitation of 250 base RNA transcript): 30-40 fold
transcriptional activation above the basal level [2]: 5 fold
activation of transcription from control templates or other templates lacking ATF binding sites [3]: does not activate transcription

CGSDALDDFDLDML (synthetic composition useful as artificial transcriptional factor) [14-mer peptide derived from VP16]
activity when fused to the GAL4 DNA binding domain through recombinant DNA techniques ([4]; Seipel et al.): inactive

CGSDALDDFDLDMLGSDALDDFDLDMLGS (synthetic composition useful as artificial transcriptional factor) [SEQ ID NO: 8]
activity retained relative to full-length VP 16 when fused to the GAL4 DNA-binding domain ([4]; Seipel et al. 1992, Nyanguile et al. 1997): about 70%
